# Assay results from patent US11497717B2, “Nanoparticles for use for treating a neuronal disorder” (NANOBIOTIX S.A., priority 2017, dated 2022).
# Experiments:
# [1] = tested on: amyloid beta 1-42 (Abeta 1-42)-induced model of Alzheimer's disease in frontal cortex cultures of mouse neurons; test: Rescue of amyloid beta 1-42-induced functional effects on neuronal networks, phenotypic MEA screening (Example 8); assay type: cell-based
# [2] = tested on: MPP^+-treated mouse ventral midbrain/cortex co-cultures; test: Prevention/rescue efficacy on MPP+-induced neuronal networks, phenotypic MEA screening (Example 7); assay type: cell-based
# Description: The prevention/rescue efficacy of nanoparticles of the invention was tested on MPP^+-treated mouse ventral midbrain/cortex co-cultures, cultured on a 48-wells MEA for 3 weeks. This model represents an in vitro Parkinson's model for screening compounds, based on the functional rescue of dopaminergic neurons using challenged midbrain/cortex cultures growing on MEAs. Midbrain is a region of the brain including the substantia nigra which is part of the basal ganglia and which contains most of the dopaminergic neurons. The evaluation of the nanoparticles' prevention/rescue effect was performed via the measurement of the extracellular electrical activity of the co-culture of neurons plated on Microelectrode Array (MEA) chips. […]
# Midbrain and frontal cortex tissue was harvested from embryonic day 14.5 chr:NMRI mice (Charles River). […] Tissue was dissociated by enzymatic digestion (133.3 Kunitz units/ml DNase; 10 Units/ml Papain) and mechanical trituration, counted, vitality controlled, and plated in a 20 μl drop of DMEM containing laminin (10 μg/ml), 10% fetal bovine serum and 10% horse serum on MEAs. Cultures on MEAs were incubated at 37° C. in a 10% CO2 atmosphere until ready for use. […]
# At day 21, 120 minutes of neuronal activity were recorded, and 30 minutes of stable activity were analyzed (FIG. 6). […]
# Each unit represents the activity originating from one neuron recorded at one electrode. […]
Molecule,"Effect Score ([1]; Abeta 1-42 100 nM at T0, nanoparticles (800 μM; [BaTiO3]=2000 μM) or donepezil 300 nM at T0+4 h, Control=0, Abeta group=1, 15 of 204 parameters)","Rescue efficacy ([1]; same treatment as Effect Score, Control set at 100%, Abeta group 0%)","Effect Score ([2]; nanoparticles ([Au] or [Si]=800 μM; [BaTiO3]=2000 μM) or GDNF 20 ng/ml at day 7, MPP+ 20 μM at day 8, recording at day 21, Control=0, MPP+ group=1, 18 of 204 parameters)","Prevention/rescue efficacy ([2]; same treatment as Effect Score, Control set at 100%, MPP+ group 0%)"
"COc1cc2c(cc1OC)C(=O)C(CC1CCN(Cc3ccccc3)CC1)C2 (stereo not shown) [Donepezil, donepezil]",0.46,54%,–,–
"GDNF: glial cell-derived neurotrophic factor, neuroprotector used as reference (protein, UniProt P39905 78-211, looked up) Glial cell line-derived …: SPDKQMAVLPRRERNRQAAAANPENSRGKGRRGQRGKNRGCVLTAIHLNVTDLGLGYETKEELIFRYCSGSCDAAETTYDKILKNLSRNRRLVSDKVGQACCRPIAFDDDLSFLDDNLVYHILRKHSAKRCGCI",–,–,0.44,56%
